Assay results published in patent publication US4469786A (priority 1981, dated 1984).

How the values were obtained:
DNA [1] = conditions: cited from earlier work
[2] = test system: single-stranded .phi.105 DNA
[3] = test system: Salmonella tester strains; conditions: literature (McCann, Bartsch, Glatt); cited from earlier work
[4] = test system: replicative-form .phi.105DII:6C DNA; experiment: gene linkage disruption in the marker rescue assay with .phi.105DII:6C DNA; conditions: PO, same conditions as Example 5 (25 to 100 mM)
DNA [5] = conditions: transformation-based assay of Phillips et al.; cited from earlier work

Q: What does the source list for `CC(=O)ON(C(C)=O)c1ccc2c(c1)Cc1ccccc1-2` [AAAF, N-acetyl-N-acetoxy-2-aminofluorine]?
A: lesion in DNA / reactivity with DNA (DNA [1]): potent frameshift mutagen which forms two different guanine adducts; frequency of clear PFU, earliest sample [2]: there appeared to be an increase in the frequency of clear PFU; marker rescue activity, subsequent samples [2]: very rapid and extensive loss of marker rescue activity; numbers of clear-plaque mutants generated ([2]; 35 mM AAAF, 37° C., 1-9 min., Hcr^+ recipient GB68, FIG. 6): increased with length of AAAF treatment; frequency of clear-plaque mutants, subsequent samples ([2]; 35 mM AAAF, 37° C., subsequent samples, Hcr^- recipient GB7075): concomitant decrease in the frequency of clear-plaque mutants

Q: Which “lesion in DNA / reactivity with DNA” value (DNA [1]) does the source give for `O=CCCl` [CAA, chloroacetaldehyde] here?
A: reacts with adenines and cytosines to form imidazonucleoside derivatives

Q: With `ClC(Cl)(Cl)Cl` [CCl4] as the compound, how does the “mutagenicity in the Ames assay” value [3] read?
A: not mutagenic in the Ames assay

Q: For `ClC(Cl)Cl` [CHCl3], which “mutagenicity in the Ames assay” value [3] is on record?
A: not mutagenic in the Ames assay

Q: With `ClC(Cl)=C(c1ccc(Cl)cc1)c1ccc(Cl)cc1` [DDE] as the compound, how does the “mutagenicity in the Ames assay” value [3] read?
A: not mutagenic in the Ames assay

Q: What does the source list for `NO` [HA, hydroxylamine]?
A: lesion in DNA / reactivity with DNA (DNA [1]): induces predominantly guanine-cytosine to adenine-thymine transitions; marker rescue activity [2]: loss of marker rescue activity; frequency of clear PFU/total PFU (capacity of treated DNA to generate clear-plaque mutants) ([2]; 1M HA, single-stranded DNA, 45° C., 0-60 minutes, GB68, FIG. 2): A time dependent increase in the capacity of the treated DNA to generate clear-plaque mutants

Q: Which “lesion in DNA / reactivity with DNA” value (DNA [1]) does the source give for `CC1CO1` (centres unmarked) [PO, propylene oxide] here?
A: reacts with guanine and adenine residues but has also been claimed to react with the phosphodiester backbone of DNA producing strand scissions

Q: What about the “disruption of linkage between J^+ allele and DII:6C mutation” value [4] of the same compound?
A: no significant disruption of linkage

Q: And the strand scission (DNA [5])?
A: PO-induced strand scission which was observed

Q: What about the “frequency of clear PFU at the highest concentration” value [2] of the same compound?
A: a decrease in the frequency of clear PFU

Q: What about the marker rescue activity [2] of the same compound?
A: No consistent decrease in marker rescue activity

Q: And the “significance (p) of increase in frequency of clear PFU” value [2]?
A: < 0.001

Q: Which “mutagenicity in the Ames assay” value [3] does the source give for `ClC1=C(Cl)[C@]2(Cl)[C@@H]3[C@@H]4C[C@@H]([C@H]5O[C@@H]45)[C@@H]3[C@@]1(Cl)C2(Cl)Cl` [dieldrin] here?
A: not mutagenic in the Ames assay

Q: For `CC/C(=C(/CC)c1ccc(O)cc1)c1ccc(O)cc1` [diethylstilbestrol], which “mutagenicity in the Ames assay” value [3] is on record?
A: not mutagenic in the Ames assay
